Several values for one entry are separate records, joined by “and”; a condition that tells them apart may be missing. Equal entries are not always repeated.
Columns and labels:
[1] = target: human S1P5 K24R mutant (Homo sapiens, UniProt Q9H228, K24R); assay: BRET-based cAMP Gi signaling assay, S1P5 K24R; conditions: ONO-5430608 pEC50, single experiments #1-#3, K24R; inverse agonism; Figure 2c source data
[2] = target: human S1P5 K24Q mutant (Homo sapiens, UniProt Q9H228, K24Q); assay: BRET-based cAMP Gi signaling assay, S1P5 K24Q; conditions: inverse agonism
Chain of human S1P5 K24Q mutant (Q9H228 whole entry K24Q): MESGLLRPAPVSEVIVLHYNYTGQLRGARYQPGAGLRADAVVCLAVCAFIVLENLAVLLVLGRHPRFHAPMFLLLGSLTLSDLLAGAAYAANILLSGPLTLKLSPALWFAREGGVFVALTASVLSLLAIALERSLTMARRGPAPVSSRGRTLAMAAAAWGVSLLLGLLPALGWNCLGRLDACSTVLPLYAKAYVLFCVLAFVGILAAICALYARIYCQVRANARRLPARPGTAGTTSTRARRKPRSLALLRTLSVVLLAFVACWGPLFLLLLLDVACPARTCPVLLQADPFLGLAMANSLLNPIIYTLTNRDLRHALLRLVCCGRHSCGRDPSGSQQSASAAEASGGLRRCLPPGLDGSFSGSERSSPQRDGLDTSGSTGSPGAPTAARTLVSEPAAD

[3] = target: human WT S1P5 receptor (Homo sapiens, UniProt Q9H228); assay: BRET-based cAMP (EPAC biosensor) Gi signaling assay, WT S1P5; conditions: for BRET signal, raw replicate readings: WT, listed as ONO; for EC50: inverse agonism
Chain of human WT S1P5 receptor (Q9H228 whole entry): as the sequence (Q9H228 whole entry K24Q) above, with Q24K counted along it

[4] = target: human S1P5 V115L mutant (Homo sapiens, UniProt Q9H228, V115L); assay: BRET-based cAMP Gi signaling assay, S1P5 V115L; conditions: inverse agonism
Chain of human S1P5 V115L mutant (Q9H228 whole entry V115L): as the sequence (Q9H228 whole entry K24Q) above, with Q24K, V115L counted along it

[5] = target: human S1P5 M296W mutant (Homo sapiens, UniProt Q9H228, M296W); assay: BRET-based cAMP Gi signaling assay, S1P5 M296W; conditions: for BRET ratio, single replicate readings (Supplementary Figure 6h): listed as ONO
Chain of human S1P5 M296W mutant (Q9H228 whole entry M296W): as the sequence (Q9H228 whole entry K24Q) above, with Q24K, M296W counted along it

[6] = target: human S1P5 G293A mutant (Homo sapiens, UniProt Q9H228, G293A); assay: BRET-based cAMP Gi signaling assay, S1P5 G293A; conditions: inverse agonism
Chain of human S1P5 G293A mutant (Q9H228 whole entry G293A): as the sequence (Q9H228 whole entry K24Q) above, with Q24K, G293A counted along it

Chain of human S1P5 K24R mutant (Q9H228 whole entry K24R): as the sequence (Q9H228 whole entry K24Q) above, with Q24R counted along it

O=C(O)CCCN1CCc2cccc(OCCc3cccc4ccccc34)c2CC1 [ONO-5430608, 4-{6-[2-(1-naphthyl)ethoxy]-1,2,4,5-tetrahydro-3H-3-benzazepin-3-yl} butanoic acid]
EC50 [1]: 4.65 nM and 4.87 nM and 4.1 nM | ONO-5430608 pEC50, single experiments #1-#3 ([2]; Figure 2c source data, N/R = no response): N/R | ONO, pEC50, M ([2]; n=3, N/R = no response): N/R | BRET signal, raw replicate readings ([3]; ONO 0.169351 nM, Suppl. Fig. 6f): 0.7609 and 0.7595 and 0.7587 and 0.7654 and 0.7615 and 0.7604 (2×) and 0.7628 and 0.7565 | BRET signal, raw replicate readings ([3]; ONO 0.508053 nM, Suppl. Fig. 6f): 0.753 and 0.7592 and 0.758 and 0.7626 and 0.762 and 0.759 and 0.761 and 0.7561 and 0.756 | BRET signal, raw replicate readings ([3]; ONO 1.52416 nM, Suppl. Fig. 6f): 0.748 and 0.7474 and 0.7478 (2×) and 0.7504 and 0.7525 and 0.7488 and 0.7446 and 0.7482 | BRET signal, raw replicate readings ([3]; ONO 4.57247 nM, Suppl. Fig. 6f): 0.7341 and 0.7354 and 0.7359 and 0.7386 and 0.7387 and 0.7347 and 0.7361 and 0.7362 and 0.7324 | BRET signal, raw replicate readings ([3]; ONO 13.7174 nM, Suppl. Fig. 6f): 0.7302 and 0.7285 and 0.7222 and 0.7325 and 0.7293 and 0.7332 and 0.7263 and 0.7276 and 0.7242 | BRET signal, raw replicate readings ([3]; ONO 41.1523 nM, Suppl. Fig. 6f): 0.7214 and 0.7273 and 0.7219 and 0.7256 and 0.7267 and 0.7266 and 0.7211 and 0.723 and 0.7239 | BRET signal, raw replicate readings ([3]; ONO 123.457 nM, Suppl. Fig. 6f): 0.7206 | BRET signal, raw replicate readings ([3]; ONO 370.37 nM, Suppl. Fig. 6f): 0.7228 and 0.7223 and 0.7157 and 0.7233 and 0.7238 and 0.7187 and 0.7181 (2×) and 0.7189 | BRET signal, raw replicate readings ([3]; ONO 1111.11 nM, Suppl. Fig. 6f): 0.7185 and 0.7195 and 0.7179 and 0.7229 and 0.7236 and 0.7207 and 0.7165 and 0.7204 and 0.7176 | BRET signal, raw replicate readings ([3]; ONO 3333.33 nM, Suppl. Fig. 6f): 0.719 and 0.7164 and 0.7226 and 0.7203 and 0.722 and 0.7221 and 0.7173 and 0.7187 and 0.715 | BRET signal, raw replicate readings ([3]; ONO 10000 nM, Suppl. Fig. 6f): 0.7216 and 0.7166 and 0.7165 and 0.7146 and 0.719 and 0.7226 and 0.7176 and 0.7153 and 0.7185 | BRET signal, raw replicate readings ([3]; ONO 10000 nM, Suppl. Fig. 6d): 0.7216 and 0.7166 and 0.7165 and 0.7146 and 0.719 and 0.7226 and 0.7176 and 0.7153 and 0.7185 | EC50 ([3]; ONO, pEC50, M, WT S1P5, mean ± SD, n=3): 1.7 nM | EC50 ([3]; ONO-5430608 pEC50, single experiments #1-#3, WT S1P5, Figure 2c source data): 1.35 nM and 2 nM and 1.8 nM | mode of action on Gi-protein-mediated signaling (basal activity level) ([3]; WT S1P5, BRET-based cAMP sensor): inverse agonist | EC50 ([4]; ONO, pEC50, M, V115L, mean ± SD, n=3): 25.1 nM | EC50 ([4]; ONO-5430608 pEC50, single experiments #1-#3, V115L, Figure 2c source data): 20.7 nM and 25.9 nM and 22.9 nM | BRET ratio, single replicate readings (Supplementary Figure 6h) ([5]; [ONO] 0.169351 nM): 0.7521 and 0.7659 and 0.7554 and 0.7607 and 0.7663 and 0.7553 and 0.7695 and 0.7638 and 0.7661 | BRET ratio, single replicate readings (Supplementary Figure 6h) ([5]; [ONO] 0.508053 nM): 0.7597 and 0.7659 and 0.7636 and 0.7627 and 0.756 and 0.7622 and 0.7625 and 0.7687 and 0.7621 | BRET ratio, single replicate readings (Supplementary Figure 6h) ([5]; [ONO] 1.52416 nM): 0.7595 and 0.7589 (2×) and 0.7566 and 0.7528 and 0.7609 and 0.7625 and 0.7671 and 0.7682 | BRET ratio, single replicate readings (Supplementary Figure 6h) ([5]; [ONO] 4.57247 nM): 0.7595 and 0.7699 and 0.7641 and 0.7574 and 0.7643 and 0.7563 and 0.7684 and 0.7632 and 0.7578 | BRET ratio, single replicate readings (Supplementary Figure 6h) ([5]; [ONO] 13.7174 nM): 0.7542 and 0.7653 and 0.7527 and 0.7649 and 0.7654 and 0.7644 and 0.7698 and 0.7669 and 0.7638 | BRET ratio, single replicate readings (Supplementary Figure 6h) ([5]; [ONO] 41.1523 nM): 0.7431 and 0.7677 and 0.7621 and 0.752 and 0.762 and 0.7675 and 0.761 and 0.7565 and 0.7598 | BRET ratio, single replicate readings (Supplementary Figure 6h) ([5]; [ONO] 123.457 nM): 0.7416 and 0.7628 and 0.7677 and 0.7662 and 0.759 and 0.753 and 0.7663 and 0.7668 and 0.7626 | BRET ratio, single replicate readings (Supplementary Figure 6h) ([5]; [ONO] 370.37 nM): 0.7572 and 0.757 and 0.7547 and 0.7694 and 0.7517 and 0.7654 and 0.7672 and 0.761 and 0.7564 | BRET ratio, single replicate readings (Supplementary Figure 6h) ([5]; [ONO] 1111.11 nM): 0.7578 and 0.7573 and 0.7667 and 0.7569 and 0.7627 and 0.7676 and 0.756 and 0.7697 and 0.7628 | BRET ratio, single replicate readings (Supplementary Figure 6h) ([5]; [ONO] 3333.33 nM): 0.7629 and 0.7592 and 0.7535 and 0.7543 and 0.758 and 0.7671 and 0.744 and 0.7683 and 0.7586 | ONO-5430608 pEC50, single experiments #1-#3 ([5]; inverse agonism, Figure 2c source data, N/R = no response): N/R | ONO, pEC50, M ([5]; inverse agonism, n=3, N/R = no response): N/R | EC50 ([6]; ONO, pEC50, M, G293A, mean ± SD, n=3): 4.57 nM | EC50 ([6]; ONO-5430608 pEC50, single experiments #1-#3, G293A, Figure 2c source data): 5.11 nM and 4.57 nM and 4.12 nM
